Measurements taken from ChEMBL document CHEMBL1138003, “Small molecule inhibitors of the CCR2b receptor. Part 1: Discovery and optimization of homopiperazine derivatives” (Bioorg Med Chem Lett, 2004).
pEC50, pIC50: −log10 of the molar value.

Experiments:
[1] = target: T1, C-C chemokine receptor type 2 (Homo sapiens, UniProt P41597); experiment: Percent inhibition of […] (Monocyte Chemoattractant Protein-1) binding to THP-1 cells at 100 uM; assay type: cell-based
Target sequence in this assay (P41597 whole entry, looked up): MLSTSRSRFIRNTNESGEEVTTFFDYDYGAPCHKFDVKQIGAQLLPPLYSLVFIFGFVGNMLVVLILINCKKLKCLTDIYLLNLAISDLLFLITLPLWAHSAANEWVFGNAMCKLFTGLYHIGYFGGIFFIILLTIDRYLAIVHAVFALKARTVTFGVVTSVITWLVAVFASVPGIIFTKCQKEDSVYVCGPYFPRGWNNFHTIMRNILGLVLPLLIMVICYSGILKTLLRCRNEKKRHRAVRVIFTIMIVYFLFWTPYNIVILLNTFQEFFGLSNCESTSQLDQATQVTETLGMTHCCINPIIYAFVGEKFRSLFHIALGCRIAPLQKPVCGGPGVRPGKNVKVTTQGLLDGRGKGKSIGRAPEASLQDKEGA

[2] = target: T1, C-C chemokine receptor type 2; experiment: Concentration required to inhibit [125I]MCP-1 (Monocyte Chemoattractant Protein-1) binding to THP-1 cell; assay type: cell-based
Target sequence in this assay (P41597 whole entry): as the sequence (P41597 whole entry, looked up) above

[3] = target: T1, C-C chemokine receptor type 2; experiment: Percent inhibition of [125I]MCP-1 (Monocyte Chemoattractant Protein-1) binding to THP-1 cells at 100 uM; assay type: cell-based
Target sequence in this assay (P41597 whole entry, looked up): as above

[4] = target: T1, C-C chemokine receptor type 2; experiment: Concentration required to inhibit [125I]MCP-1 (Monocyte Chemoattractant Protein-1) binding to THP-1 cell; not determined; assay type: cell-based
Target sequence in this assay (P41597 whole entry): as the sequence (P41597 whole entry, looked up) above

[5] = Effective concentration in a chemotaxis assay; assay type: functional

Row | SMILES | inhibition [1] [%] | pIC50 [2] | inhibition [3] [%] | also measured
1 | c1ccc(C(CCN2CCCN(Cc3ccncc3)CC2)c2ccccc2)cc1 | 87 | 4.96 |  | 
2 | CS(=O)(=O)c1ccc(CN2CCCN(CCC(O)(c3ccc(F)cc3)c3ccc(F)cc3)CC2)cc1 |  | 5.15 | 100 | 
3 | CS(=O)(=O)c1ccc(CN2CCCN(CCC(O)(c3cccc(F)c3)c3cccc(F)c3)CC2)cc1 |  | 4.47 | 75 | 
4 | O=C(CN1CCCN(Cc2ccc(Cl)cc2)CC1)NNC(=O)c1cccs1 |  | 4.52 |  | 
5 | O=[N+]([O-])c1ccccc1CN1CCCN(CCC(c2ccccc2)c2ccccc2)CC1 | 7 |  |  | 
6 | CS(=O)(=O)c1ccc(CN2CCCN(CCC(c3ccccc3)c3ccccc3)CC2)cc1 | 91 | 4.89 |  | 
7 | CCCN1CCCN(CCC(c2ccccc2)c2ccccc2)CC1 | 15 |  |  | 
8 | FC(F)(F)c1ccc(CN2CCCN(CCC(c3ccccc3)c3ccccc3)CC2)cc1 | 25 |  |  | 
9 | Cc1csc(C(=O)NNC(=O)CN2CCCN(CCC(O)(c3ccccc3)c3cccc(O)c3)CC2)c1 (stereo not given) |  | 5.19 |  | 
10 | O=[N+]([O-])c1ccc(CN2CCCN(CCC(c3ccccc3)c3ccccc3)CC2)cc1 | 87 | 4.72 |  | 
11 | c1ccc(CN2CCCN(CCC(c3ccccc3)c3ccccc3)CC2)cc1 | 24 |  |  | 
12 | CS(=O)(=O)c1ccc(CN2CCCN(CCC(O)(c3ccc(-c4ccccc4)cc3)c3ccc(-c4ccccc4)cc3)CC2)cc1 |  |  | 0 | 
13 | c1ccc(C(CCN2CCCN(Cc3cccnc3)CC2)c2ccccc2)cc1 | 69 |  |  | 
14 | COc1ccc(CN2CCCN(CCC(c3ccccc3)c3ccccc3)CC2)cc1 | 7 |  |  | 
15 | Clc1ccc(CN2CCCN(CCC(c3ccccc3)c3ccccc3)CC2)cc1 | 8 |  |  | 
16 | CS(=O)(=O)c1ccc(CN2CCCN(Cc3ccc(Cl)cc3)CC2)cc1 |  | < 4.00 |  | 

Row | SMILES | inhibition [1] [%] | pIC50 [2] | inhibition [3] [%] | also measured
17 | CS(=O)(=O)c1ccc(CN2CCCN(CCC(O)(c3ccc(C(F)(F)F)cc3)c3ccc(C(F)(F)F)cc3)CC2)cc1 |  |  | 38 | 
18 | CS(=O)(=O)c1ccc(CN2CCCN(CCC(O)(c3cccc(O)c3)c3cc(F)cc(F)c3)CC2)cc1 (stereo not given) |  | 5.03 | 107 | 
19 | O=[N+]([O-])c1cccc(CN2CCCN(CCC(c3ccccc3)c3ccccc3)CC2)c1 | 35 |  |  | 
20 | CS(=O)(=O)c1ccc(CN2CCCN(CCC(O)(c3ccc(Cl)cc3)c3ccc(Cl)cc3)CC2)cc1 |  | 4.96 | 94 | 
21 | COc1ccccc1C(O)(CCN1CCCN(Cc2ccc(S(C)(=O)=O)cc2)CC1)c1ccccc1OC |  |  | 14 | 
22 | CC(C)(C)c1ccc(C(O)(CCN2CCCN(Cc3ccc(S(C)(=O)=O)cc3)CC2)c2ccc(C(C)(C)C)cc2)cc1 |  |  | 39 | 
23 | COc1cccc(C(O)(CCN2CCCN(Cc3ccc(S(C)(=O)=O)cc3)CC2)c2cccc(OC)c2)c1 |  |  | 38 | 
24 | CN(C)c1ccc(C(O)(CCN2CCCN(Cc3ccc(S(C)(=O)=O)cc3)CC2)c2ccc(N(C)C)cc2)cc1 |  | 4.35 | 68 | 
25 | CS(=O)(=O)c1ccc(CN2CCCN(CCC(O)(c3ccc(O)cc3)c3ccc(O)cc3)CC2)cc1 |  | 4.68 | 83 | 
26 | N#Cc1ccc(CN2CCCN(CCC(c3ccccc3)c3ccccc3)CC2)cc1 | 74 | 4.37 |  | 
27 | COC(=O)c1ccc(CN2CCCN(CCC(c3ccccc3)c3ccccc3)CC2)cc1 | 1 |  |  | 
28 | Cc1csc(C(=O)NNC(=O)CN2CCCN(Cc3ccc(Cl)cc3)CC2)c1 |  | 5.13 |  | pEC50 [5]: 5.02
29 | O=C(CN1CCCN(CCC(O)(c2ccccc2)c2cccc(O)c2)CC1)NNC(=O)c1cccs1 (stereo not given) |  | 4.55 |  | 
30 | Cc1ccccc1C(O)(CCN1CCCN(Cc2ccc(S(C)(=O)=O)cc2)CC1)c1ccccc1C |  |  | 0 | 
31 | c1ccc(C(CCN2CCCN(Cc3ccccn3)CC2)c2ccccc2)cc1 | 35 |  |  | 

Second part, led by results:

Row | inhibition [1] [%] | pIC50 [2] | inhibition [3] [%] | SMILES | also measured
32 |  | 6.15 | 105 | CS(=O)(=O)c1ccc(CN2CCCN(CCC(O)(c3ccccc3)c3cccc(O)c3)CC2)cc1 (stereo not given) | 
33 |  | 4.80 | 92 | Cc1cccc(C(O)(CCN2CCCN(Cc3ccc(S(C)(=O)=O)cc3)CC2)c2ccccc2)c1 (stereo not given) | 
34 |  | 5.62 | 104 | CS(=O)(=O)c1ccc(CN2CCCN(CCC(O)(c3cccc(O)c3)c3cccc(F)c3)CC2)cc1 (stereo not given) | 
35 |  | 5.10 | 97 | COc1cccc(C(O)(CCN2CCCN(Cc3ccc(S(C)(=O)=O)cc3)CC2)c2ccccc2)c1 (stereo not given) | 
36 |  |  | 108 | CS(=O)(=O)c1ccc(CN2CCCN(CCC(O)(c3cccc(O)c3)c3cccc(O)c3)CC2)cc1 | pIC50 [4]: 5.82
37 |  | 5.82 | 104 | CS(=O)(=O)c1ccc(CN2CCCN(CCC(O)(c3ccc(Cl)cc3)c3cccc(O)c3)CC2)cc1 (stereo not given) | 
38 |  | 5.82 |  | NS(=O)(=O)c1ccc(CN2CCCN(CCC(O)(c3ccccc3)c3cccc(O)c3)CC2)cc1 (stereo not given) | 
39 |  | 5.82 | 105 | CS(=O)(=O)c1ccc(CN2CCCN(CCC(O)(c3ccc(F)cc3)c3cccc(O)c3)CC2)cc1 (stereo not given) | 
40 |  | 5.39 | 104 | CS(=O)(=O)c1ccc(CN2CCCN(CCC(O)(c3ccccc3)c3ccccc3)CC2)cc1 | 
41 |  |  | 28 | CS(=O)(=O)c1ccc(CN2CCCN(CCC(O)(c3cccc(Cl)c3)c3cccc(Cl)c3)CC2)cc1 | 
42 |  | 4.92 | 95 | CS(=O)(=O)c1ccc(CN2CCCN(CCC(O)(c3ccccc3)c3cccc(F)c3)CC2)cc1 (stereo not given) | 
43 |  | 5.40 | 100 | CS(=O)(=O)c1ccc(CN2CCCN(CCC(O)(c3ccccc3)c3cccc(CO)c3)CC2)cc1 (stereo not given) | 
44 |  | 5.30 | 87 | CNc1cccc(C(O)(CCN2CCCN(Cc3ccc(S(C)(=O)=O)cc3)CC2)c2ccccc2)c1 (stereo not given) | 
45 |  | 5.35 | 99 | CS(=O)(=O)c1ccc(CN2CCCN(CCC(O)(c3cccc(O)c3)c3cccc(Cl)c3)CC2)cc1 (stereo not given) | 
46 |  | 5.38 | 102 | CS(=O)(=O)c1ccc(CN2CCCN(CCC(O)(c3ccccc3)c3cccc(N)c3)CC2)cc1 (stereo not given) | 
